Key:
[1] = test system: PANK2 silenced cells (IMR32 Human Neuroblastoma Cells); assay: Neuroblastoma cell assay: CoASH by LC-MS/MS in PANK2 silenced cells; type: cell-based; details: 50 μM, treatment repeated after 24 hours, further 24 hours; free CoASH by LC-MS/MS
Protocol: The compounds described herein may be tested in PANK2 silenced cells (IMR32 Human Neuroblastoma Cells). The amount of CoASH following administration of the compounds is measured by LC-MS/MS.
Human neuroblastoma IMR32 cells (ATCC) were cultured in MEM (Invitrogen) supplemented with 10% fetal bovine serum, 2 mM glutamine, 1% penicillin-streptomycin, 1 mM sodium pyruvate, 1 mM non essential aminoacids and 1.5 g/l sodium bicarbonate.
Human Emryonic Kidney HEK-293T cells (ATCC) were cultured in DMEM supplemented with 10% fetal bovine serum, 1 mM glutamine, 1% penicillin-streptomycin.
The cells were maintained at 37° C. under 5% CO2.
Establishment of a PANK2−/− Cell Model
For lentiviral shRNA expression, Human Emryonic Kidney HEK-293T cells (ATCC) were transfected with the appropriate pGFP-Lenti-shRNA constructs and packaging plasmids according to manufacturer's protocol (Origene Technologies, Inc.). 4 different gene-specific shRNA expression vectors designed against multiple splice variants of PANK2 (Gene ID 80025) were used for transfection. A non-silencing shRNA construct (scrambled shRNA) and an empty vector expressing GFP alone were used as negative controls. The GFP tag subcloned into the lentiviral vectors was used to monitor the transfection efficiency.
IMR32 cells were plated on […] dishes 48 hrs before transduction with lentiviral particles.
Three days after transduction medium was removed and replaced with fresh medium containing […] puromycin. Medium was replaced every 48 hrs. Levels of PANK2 expression on selected clones was assessed by Western Blot analysis.
Cell-Based Assay on PANK2−/− Cells
Cells were plated on 6-well culture plates. After 72 hours, compounds were diluted in DMSO and added to the culture medium such that the final solvent concentration was 0.1% (v/v). […] Before analysis of Coenzyme A levels, cells were harvested, counted and collected in a 15 ml falcon tube and centrifuged at 200×g for 5 min at 4° C. […]
Results are expressed as fold increase in CoA levels (LCMS quantification of free CoASH as described in above).

[2] = test system: Pank1−/− mice; assay: In vivo testing: liver Coenzyme A levels in Pank1−/− mice; set-up: species or system mouse; details: liver CoA in treated Pank1−/− mice as percentage of untreated Pank1−/− mice; intraperitoneal 1.2 μmoles/g body weight once daily for 5 days, fasted overnight
Protocol: Compounds of the invention were tested for efficacy in Pank1^−/− mice (strain 129SvJ×C57BL/6J background), which were compared with age-matched Pank1^+/+ (strain 129SvJ×C57BL/6J) littermates, ages 8-12 weeks. Each mouse was identified with a coded ear tag and weighed on the first day of testing. Each compound was administered to 4-5 mice by intraperitoneal injection at a dose of 1.2 μmoles/g body weight in 5 μL dimethylsulfoxide once daily for 5 days, and mice were then fasted overnight, weighed, and euthanized. Untreated mice received 5 μL dimethylsulfoxide once daily for 5 days and then were fasted overnight prior to weighing and euthanasia. Livers were excised from each mouse, aliquots were snap-frozen in liquid nitrogen, and stored at −80° C. Within 7 days, liver samples were thawed on ice, weighed, and analyzed for Coenzyme A content as described below. Efficacy was indicated by a statistically significant increase in the liver Coenzyme A levels in the Pank1^−/− mice as compared to the liver from untreated Pank1^−/− mice and by equivalence in comparison with Coenzyme A levels in untreated Pank1^+/+ mice.
CoA Measurements: Extraction of Fibroblasts and Liver and Derivatization of Coenzyme A Prior to High Pressure Liquid Chromatography (HPLC) […]
Coenzyme A Quantification by HPLC […]

Row | SMILES | CoA levels (fold over vehicle treated PANK2−/− cells) [1] | CoA (% KO) [2]
1 | COC(=O)CCNC(=O)[C@H](O)C(C)(C)COP(=O)(N[C@@H](Cc1ccccc1)C(=O)OCc1ccccc1)Oc1ccccc1 (stereo partly drawn) [Compound 27, Benzyl (((R)-3-hydroxy-4-((3-methoxy-3-oxopropyl)amino)-2,2-dimethyl-4-oxobutoxy)(phenoxy)phosphoryl)-L-phenylalaninate] | 1.3 fold | 1837 % KO
2 | COC(=O)[C@H](C)NP(=O)(OCC(C)(C)[C@@H](O)C(=O)NCCC(=O)OCc1ccccc1)Oc1ccccc1 (stereo partly drawn) [Compound 22, Benzyl 3-((2R)-2-hydroxy-4-(((((S)-1-methoxy-1-oxopropan-2-yl)amino)(phenoxy)phosphoryl)oxy)-3,3-dimethylbutanamido)propanoate] | 1.1 fold | 400 % KO
3 | COC(=O)CCNC(=O)[C@H](O)C(C)(C)COP(=O)(N[C@@H](C)C(=O)OCc1ccccc1)Oc1ccccc1 (stereo partly drawn) [Compound 24, Benzyl (((R)-3-hydroxy-4-((3-methoxy-3-oxopropyl)amino)-2,2-dimethyl-4-oxobutoxy)(phenoxy)phosphoryl)-L-alaninate] | 1.7 fold | 

From US10407447B2, “Pantothenate derivatives for the treatment of neurological disorders” (Retrophin, Inc., priority 2013, dated 2019)
